Data taken from patent publication US6818647B2, “Method and composition for restoring diuretic and renal function” (CV Therapeutics, Inc, priority 1998, dated 2004).
Values joined by “and” are separate entries in the source; they are usually repeats but may differ in a detail not shown here. Equal values may be shown once. “Also recorded” adds a separate entry of the source.

Legend:
Micropuncture studies = format: in vivo; details: following administration of BG9719
adenosine A1 receptor [1] = target: T1, adenosine A1 receptor (Homo sapiens, UniProt P30542); experiment: IC50 for the adenosine A1 receptor; format: binding
T1 sequence (P30542 1-326): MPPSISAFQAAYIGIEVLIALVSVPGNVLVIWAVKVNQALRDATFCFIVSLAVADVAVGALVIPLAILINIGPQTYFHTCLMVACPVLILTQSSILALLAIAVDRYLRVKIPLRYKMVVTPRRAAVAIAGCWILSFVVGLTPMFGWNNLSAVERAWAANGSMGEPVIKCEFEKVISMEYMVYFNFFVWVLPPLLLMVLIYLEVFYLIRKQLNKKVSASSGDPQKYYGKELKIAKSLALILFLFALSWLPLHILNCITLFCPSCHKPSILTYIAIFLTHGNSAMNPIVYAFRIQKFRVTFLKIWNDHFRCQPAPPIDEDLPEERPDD

Male Sprague-Dawley rats [2] = experiment: Sustained i.v. infusion of diuretics in conscious catheterised rats: dose response, combinations, renal clearance (Example 2); format: in vivo, rat; details: for Equidiuretic dose / dose at which the maximum diuretic effect was reached / Potassium excretion / diuretic effect (urine flow): sustained i.v. infusion; for dose at which the maximum diuretic effect was reached / Potassium excretion / diuretic effect (urine flow): dose response; for Potassium excretion / diuretic effect (urine flow): single agents
Procedure: Male Sprague-Dawley rats were obtained from Charles River Labs (Wilmington, Del.). They were housed in a light-controlled room with a 12 h light/dark cycle and were allowed ad libitum access to food and water.
Catheters were implanted in the abdominal aorta and vena cava via the left femoral artery and vein under a mixture of ketamine hydrochloride (50 mg/kg) and acepromazine (0.2 mg/kg, i.m.) anesthesia. An additional medical grade Tygon tubing was placed in the he stomach at the left extremity of the greater curvature. A silastic-covered stainless steel cannula was implanted in the bladder. Details of surgery, pre and post-surgical care and the experimental set-ups have been described in detail previously (87). Experiments were conducted 4-5 days following surgery, by which time the rats had fully recovered and were gaining weight. During the recovery, the rats were housed individually and were accustomed to a plastic retainer (model ECU, Braintree Scientific, Inc., Braintree, Mass.).
Between 8:00-9:00 AM, rats were weighed and placed in the restrainer. The arterial line was connected to a Gilson polygraph via a Gould pressure transducer for the recording of blood pressure (MAP) and heart rate (HR); the venous line to infusion pumps for the infusion of vehicle and test agents; and the stomach tube to a 10 or 20 cc syringe to allow for the replacement of excess urinary loss. The bladder cannula was extended with a short length of PE tubing to permit collection of urine into preweighed tubes.
To replace normal fluid and electrolytes loss, heparinized (50 U/ml) ringer's solution was infused throughout the experiment via the arterial line and 5% dextrose during the equilibration and control period via the venous line, each at 10 μl/min. When excess fluid loss reached 2 ml, it was replaced via the gastric tube with room temperature Ringer's solution. A period of 45-60 min was allowed for equilibration in all studies, at the end of which a 0.5 ml blood sample was taken for measurement of hematocrit, plasma electrolytes and creatinine. This was followed by the various experimental procedures described below.
Group 1. Sustained I.V. infusion of diuretic agents. Urine was collected in 5 min periods throughout the experimental period. After equilibration, 3 collections were made to establish baseline. thirty min urine collections were made before and during infusion of test agent. […] At the end of experiments, the rats were weighed again and returned to their home cages.
Group 2. Sustained i.v. infusion of combinations diuretics. […] After the termination of infusion, urine flow was allowed to return to baseline, approximately 15-20 min. The rats were then weighed and returned to their home cages.
Group 3. […] (10%) and PAH (2%) were infused i.v. at 20 μl/min from the start. IN order to establish baseline values, two 20 min urine collections were performed following equilibration. One blood sample (500 μl) was taken in the middle of the second collection.
Urinary and plasma concentrations of […] and PAH were determined by spectrophotometry, electrolyte concentrations were measured using the Synchron ASB Clinical System (Beckman Instr. Inc., Brea, Calif.) and osmolality by an automatic osmometer (Model 2430, Precision Systems, Inc., Natick, Mass.). Renal clearance values were calculated using standard clearance formulae and expressed per 100 g body weight.
All values represent maximal changes, expressed as absolute values, and are reported throughout as group means+−SEM. Data from the does-response studies (groups 1-5) were analyzed using an analysis of variance for repeated measures, post-hoc comparisons were made with the Schette f-test. Analysis of variance (ANOVA) was used to analyze differences between the effects of various diuretics and their combinations (group 6) and the renal clearance data (group 7). A value of P<0.05 was considered statistically significant.

Male Sprague-Dawley rats [3] = experiment: Renal function of anesthetized rats after 0-3 days of furosemide, before and after BG9719 IV (Example 7); format: in vivo, rat
Procedure: Twenty four hours after their last dose, they were anesthetized and instrumented to measure renal function and hemodynamics.
We collected a 30 minute baseline urine and determined basal sodium excretion in these rats.
Twenty-four hours after the last dose was administered, the rats were anesthetized and instrumented to measure renal function. […] Urine was collected via an implanted bladder catheter.

Male Sprague-Dawley rats [4] = experiment: Natriuretic response to oral dosing in rats in metabolic cages (Examples 3, 5, 6); format: in vivo, rat; details: once-daily gavage, Days 1-5, furosemide 100 mg/kg or BG9719 1 mg/kg; urine 4 hours after dosing
Procedure: Urines were collected for 4 hours post dosing and the natriuretic response was determined. The data are expressed as uEq/hr.
FIG. 8: In the same rats from FIG. 7, we collected urine for 4 hours after dosing.
Twenty four male Sprague-Dawley rats were placed in metabolic cages to collect urines in order to assess the natriuretic response to orally administered compounds. […] Urines were collected for 4 hours after dosing. Urine volume was determined gravimetrically and urinary sodium concentration was determined by flame photometry.
The rats shown in Example 4 were placed in metabolic cages on Days 1 through 5 of dosing and urine was collected for 4 hours after dosing. Urine volume was determined gravimetrically and urinary sodium concentration was determined by flame photometry.
They were placed in metabolic cages and urines were collected for four hours after dosing. Urine volume was determined gravimetrically and urinary sodium concentration was determined by flame photometry.

adenosine A1 receptor [5] = target: T1, adenosine A1 receptor; details: other adenosine A1 receptor antagonists; cited from earlier work
[6] = system: patients with NYHA Class II or III CHF; experiment: Renal function in CHF patients after single intravenous dose (Example 1); details: 0-2 hours, mean, single i.v. dose
[7] = renal clearance study, FUR 10 μg/kg/min i.v. for 90 min

SMILES	tubular flow rates (Micropuncture studies)	IC50 (adenosine A1 receptor [1]) [nM]	increase in GFR (Male Sprague-Dawley rats [2]; renal clearance study, 1 μg/kg/min i.v. for 90 min, not statistically significant) [%]	absolute and fractional excretions of sodium (Male Sprague-Dawley rats [2]; renal clearance study, BG9719 1 or FUR 10 μg/kg/min i.v. for 90 min)	total urine output (Male Sprague-Dawley rats [2]; representative animal of FIG. 1, i.v. infusion 0.3-10 μg/kg/min) [mL]	Equidiuretic dose (Male Sprague-Dawley rats [2]) [µg/kg/min]	dose at which the maximum diuretic effect was reached (Male Sprague-Dawley rats [2]) [µg/kg/min]	Potassium excretion (Male Sprague-Dawley rats [2])	diuretic effect (urine flow) (Male Sprague-Dawley rats [2])	GFR after dosing in Day 3 furosemide rats (Male Sprague-Dawley rats [3]; BG9719 0.1 mg/kg IV after 3 days furosemide)	urinary sodium excretion (UNaV) after dosing (Male Sprague-Dawley rats [3]; BG9719 0.1 mg/kg IV, control rats and 3 Day Furo rats)	GFR after dosing versus baseline (Male Sprague-Dawley rats [3]; BG9719 0.1 mg/kg IV, rats with 0-3 days furosemide)	natriuretic response on repeated dosing (Male Sprague-Dawley rats [4])	A1 vs. A2 selectivity (adenosine A1 receptor [5]) [fold]	GFR (Male Sprague-Dawley rats [2]; [7])	RBF (Male Sprague-Dawley rats [2]; [7])	basal GFR (Male Sprague-Dawley rats [3]; after 1 day of furosemide 100 mg/kg orally)	Urine volume [6]
CCCn1c(=O)c2nc(C3CC4CC3C3OC43)[nH]c2n(CCC)c1=O [BG9719, 1,3-dipropyl-8-[5,6-exo-epoxy)-2(S) norbornyl] xanthine]	increased flow rates in both the proximal and distal tubules	1.15	13	increased	23.8	1	3	not	does-dependent increase in urine flow	recover to a level not different than normal rats	reaches maximum within the first fifteen minutes	increases in all groups	maintained across multiple dosing days	–	–	–	–	–
NS(=O)(=O)c1cc2c(cc1Cl)NCNS2(=O)=O [HCTZ, hydrochlorothiazide]	–	–	–	–	–	30	20	significantly increased	only minor effects	–	–	–	–	–	–	–	–	–
CCCn1c(=O)c2[nH]c(C34CC5CC(CC3C5)C4)nc2n(CCC)c1=O [KW 3902]	–	–	–	–	–	–	–	–	–	–	–	–	–	150	–	–	–	–
NS(=O)(=O)c1cc(C(=O)O)c(NCc2ccco2)cc1Cl [furosemide]	–	–	–	–	–	10	100	–	twice as a potent diuretic as BG9719	–	–	–	diminishes on repeated dosing	–	significantly lowered	significantly lowered	relatively normal; also recorded: fairly normal	increased and 1081 mL
